In patent publication US11213499B1, “Use of 3,3′-diselenodipropionic acid (DSePA) as an anticancer agent” (Secretary, Department of Atomic Energy, priority 2020, dated 2022):
Read-outs that look alike come from different tables or passages of the source.

What was measured:
[1] = system: A549 (Human non-small cell lung adenocarcinoma); assay: SRB/MTT anti-proliferative assay, A549; format: cell-based; settings: 48 hours treatment, read-out: GI50 (Concentration of drug causing 50% inhibition of cell growth)
Experimental: (§1) The anticancer effect of DSePA was evaluated using a panel of twenty-five human cancer cell lines of different tissue origins. Cells were treated with the increasing concentrations (0.1-100 μM) of DSePA for 48 h and viability was monitored by (Sulforhodamine B) SRB assay or MTT assay.
(§2) Cell culture and DSePA synthesis—DSePA was synthesized and characterized as described in our previous reports. Cell lines were cultured in growth medium (DMEM/RPMI) supplemented with 10% FBS, 100 U/ml penicillin and 100 μg/ml streptomycin at 37° C. in a humidified 5% CO2 environment. The stock solution of DSePA was prepared fresh in cell culture medium and diluted with the same to achieve the desired concentrations.
(§3) SRB/MTT Assay—To evaluate the anti-proliferative effect of DSePA, Cells (˜5×10^3) suspended in 100 μl of complete culture medium were seeded in each well of 96 well plates. The cells were allowed to attach and grow for 24 h, treated with desired concentrations of DSePA dissolved in culture medium for 48 h and then processed for SRB/MTT assay as described in literature. The percentage (%) cytotoxicity was calculated from the decrease in absorbance as compared to that of control group.

[2] = system: H460 (Human non-small cell lung adenocarcinoma); assay: SRB/MTT anti-proliferative assay, H460; format: cell-based; settings: 48 hours treatment, read-out: GI50 (Concentration of drug causing 50% inhibition of cell growth)
Experimental: as §1, §2, §3

O=C(O)CC[Se][Se]CCC(=O)O [DSePA, 3,3′-diselenodipropionic acid]
GI50 [1]: 10 µM
GI50 ([1]; Homo sapiens, A549, 48 h): ≤ 10 µM
GI50 [2]: 8 µM
GI50 ([2]; Homo sapiens, NCI-H460, 48 h): ≤ 10 µM
